The nature of the assay: Blockade of CNGA1/CNGB1 expressed in Xenopus oocyte by electrophysiological method.

From ChEMBL document CHEMBL1140802 (Bioorg Med Chem Lett, 2008) come the findings set out here.

As to `CCCCCCCCNc1ccc(C(=O)OCC[N+](C)(C)CC)cc1`, binding was characterised by a dissociation constant (Kd) of 1.6 µM. `CCCCCCNc1ccc(C(=O)OCCN(C)C)cc1`: the affinity, expressed as Kd, was 3.8 µM.

As to `CCCCNc1ccc(C(=O)OCCN(CC)CC)cc1` [P-BUTYLAMINOBENZOYLDIETHYLAMINOETHYL], binding was characterised by a dissociation constant (Kd) of 8.5 µM. This Kd lies about 2.2-fold higher than the previous one. The same measure for `CCCCNc1ccc(C(=O)OCCCN(CCCC)CCCC)cc1`: 1.3 µM; for `CCCCNc1ccc(C(=O)OCCCCN(CCCC)CCCC)cc1`: 1.3 µM; for `CCCCCCCCNc1ccc(C(=O)OCCN(C)C)cc1`: 1.3 µM. For the compound `CCCCNc1ccc(C(=O)OCCCN(C)C)cc1`, the affinity, expressed as Kd, was 5 µM.

`CN(C)CCOC(=O)c1ccc(NC2CCCCC2)cc1` returned a Kd of 17 µM. The same measure for `CCCCNc1ccc(C(=O)OCCN(CCCC)CCCC)cc1`: 1.1 µM; for `CN(C)CCOC(=O)c1ccc(NCc2ccccc2)cc1`: 16 µM.

As to `CCCCNc1ccc(C(=O)OCCCN(CC)CC)cc1`, the Kd was found to be 5.6 µM.

Take `CCCCNc1ccc(C(=O)OCCCCN(C)C)cc1`: the Kd is 7.1 µM. This Kd and that of the compound before are within 1.5-fold of each other. The same measure for `CC(C)CNc1ccc(C(=O)OCCN(C)C)cc1`: 20 µM.

Broadly, the Kd is the constant that tells how readily two partners part at equilibrium.
